Experimental data reported in US6127355A (priority 1999, dated 2000).
Like-named read-outs stand apart in the source and are kept apart here.

Legend:
[1] = system: P388/0 (murine lymphoid neoplasm) cells; assay: cells; assay type: cell-based; settings: read-out: IC50 (nM) P388
Method: (§1) In this example, a series of in vitro assays were conducted to determine the IC50 for unmodified camptothecin, unmodified paclitaxel and several of the high molecular weight prodrugs prepared as set forth above.
(§2) All compounds were independently tested against one or more of the P388/0 (murine lymphoid neoplasm, Southern Research Institute), HT-29 (human colon carcinoma) and A549 (human lung adeno carcinoma) cell lines.
(§3) The P388/0 cells were grown in RPMI 1640 medium (Whittaker Bioproducts, Walkersville, Md.)+10% FBS (Hyclone Inc., Logan Utah). The HT-29 cells were grown in DMEM (GIBCOBRL)+10% FBS (Hyclone, Inc.). The A549 cells were grown in DMEM/F-12 (Biowhitaker)+10% FBS (Heat inactivated). Bioassays were performed in their respective media containing antibiotics and fungizone.
(§4) Camptothecin and paclitaxel were dissolved in DMSO and diluted to the appropriate concentration in culture media. The PEG-Camptothecin and PEG-paclitaxel prodrugs were dissolved in water and diluted to the appropriate concentrations in culture media.
(§5) The assays were performed in duplicate in 96-well microtiter cell culture plates. Two fold serial dilution of the compounds were done in the microtiter plates. Cells were detached by incubating with 0.1% Trypsin/Versene at 37°. Trypsin was inactivated by adding the appropriate media for each cell line containing 10% FBS. To each well of the microtiter plates, 10,000 cells were added. After three days, cell growth was measured by addition of a metabolic indicator dye, Alamar Blue, according to the manufacturer's protocol. The IC50 value for each test compound was determined and compared to the IC50 for the appropriate reference compound.
P-388 Murine leukemia cell line

[2] = system: HT-29 (human colon carcinoma) cells; assay: cells; assay type: cell-based; settings: read-out: IC50 (nM) HT-29
Method: as §1, §2, §3, §4, §5
HT29 Human colon carcinoma cell line

[3] = system: one or more of the P388/0, HT-29 and A549 cell lines; assay: cells; assay type: cell-based
Method: as §1, §2, §3, §4, §5
The IC50 values for some of the compounds formed in examples 47-53 were determined using the same process as that described above with regard to example 45 and compared to native camptothecin.

[4] = system: murine leukemia cell line P388/0; assay: Murine Leukemia Model (In vivo P388); set-up: species or system mouse; settings: ip, days 1-5; for Survival Rate %: survival at 40 days
Method: (§6) In this Example, the in vivo activity of some of the compounds prepared in accordance with the present invention was assessed using the Murine Leukemia Model and the Colorectal Xenograft model.
The compounds shown in the Table below were screened for in vivo activity against the murine leukemia cell line P388/0 (mouse, lymphoid neoplasm). The cell line was obtained from Southern Research Institute (Birmingham, Ala.) and grown in RPMI 1640 supplemented with 10% FBS. P388/0 cells were subcultured two times per week and log phase cultures (viability ≥95%/o) were used for all in vivo experiments. Female CD2F1 mice (Taconic Farms, Germantown, N.Y.) at 7-8 weeks of age were used for study. Following one week of acclimation, mice were implanted ip with P388/0 cells (5×10^5 cells/mouse) at designated day 0 (zero). The mice were randomly assigned to experimental groups (10-20 per group). The groups included Control groups and several which received one of the drugs or prodrugs. The mice were then dosed (500 μL, ip) for 5 consecutive days (days 1-5). Control groups received vehicle (intralipid or water). The mice were monitored for up to 40 days, and the treatment was evaluated and expressed as the percentage survival at 40 days.

[5] = Colorectal Xenograft (In vivo HT-29); set-up: species or system human tumor in nu/nu mice; settings: mouse, in vivo, ip; week 5 (end of treatment); total active dose 62.5 mg/kg
Method: as §6
(§7) Female nu/nu mice (Harlan Sprague Dawley, Madison, Wis.), 18-24 g and 10-14 weeks old, at onset of treatment were used. The solid tumor HT-29 (human, colon adenocarcinoma) was obtained from the ATCC (HTB 38) and grown in DMEM supplemented with 10% FBS. Cells were subcultured once a week and for in vivo experiments viabilities were ≥90%. Mice were housed in microisolator filtration racks, and maintained with filtered acidified water and sterile laboratory chow ad libitum. Following one week of acclimation, tumors were established by injecting 1×10^6 harvested HT-29 tumor cells in a single subcutaneous site, on the flank of mice in the left axillary region. The tumor injection site was observed twice weekly and measured once palpable. The tumor volume for each mouse was determined by measuring two dimensions with calipers and calculated using the formula: tumor volume=(length×width^2)/2. When tumors reached the average volume of 300 mm^3, the mice were divided into their experimental groups. The non-Control groups received Camptothecin 2.5 mg/kg/day, the prodrugs being dosed on the basis of camptothecin content. The mice were sorted to evenly distribute tumor size, grouped into 5 mice/cage, and ear punched for permanent identification. Mice receiving drugs were treated i.p. 5 times a week, Monday through Friday for 5 weeks with 500 μL of test article. Mouse weight and tumor size were measured at the beginning of study and weekly through week 7. The overall growth of tumors was expressed as the percent change in tumor size calculated by subtracting mean initial tumor volume from mean tumor volume at the end of the treatment and dividing by mean initial tumor volume.

[6] = system: solid tumor HT-29 (human, colon adenocarcinoma); assay: Colorectal Xenograft (In vivo HT-29); set-up: species or system human tumor in nu/nu mice; settings: total active dose 62.5 mg/kg, i.p.
Method: as §6, §7

[7] = cell line not stated, same process as example 45, read-out: IC50

For `CC[C@@]1(O)C(=O)OCc2c1cc1n(c2=O)Cc2cc3ccccc3nc2-1` [Camptothecin, reference compound], the IC50 ([1]; Mus musculus, P388, 72 h) was 5 nM, the IC50 ([2]; Homo sapiens, HT-29, 72 h) was 21 nM and the IC50 [3] was 7 nM. For the same molecule, the “Survival Rate %” value ([4]; total active dose 16 mg/kg) was 80%, the mortality at 840 h [5] was 50% and the “Body weight change (%)” value ([6]; week 5 (end of treatment)) was -3%. The “Tumor growth (%)” value ([6]; week 5 (end of treatment)) was -20%, the “Body weight change (%)” value ([6]; week 7 (2 week post treatment)) was -3% and the “Tumor growth (%)” value ([6]; week 7 (2 week post treatment)) was 62%.
For `CC[C@@]1(OC(=O)n2ccnc2)C(=O)OCc2c1cc1n(c2=O)Cc2cc3ccccc3nc2-1` [Compound 54, camptothecin-20-O-carbonylimidazolyl carbonate], the IC50 ([3]; read-out: IC50) was 69 nM.
With `CC[C@@]1(OC(=O)Oc2ccc([N+](=O)[O-])cc2)C(=O)OCc2c1cc1n(c2=O)Cc2cc3ccccc3nc2-1` [Compound 55, camptothecin-20-O-paranitrophenyl carbonate] the IC50 [3, 7] was 365 nM.
Work on `CC[C@@]1(OC(=O)ON2C(=O)CCC2=O)C(=O)OCc2c1cc1n(c2=O)Cc2cc3ccccc3nc2-1` [Compound 56, camptothecin-20-O-N-hydroxysuccinimidyl carbonate] yielded an IC50 [3, 7] of 1030 nM.
`CC[C@@]1(OC(=O)OC)C(=O)OCc2c1cc1n(c2=O)Cc2cc3ccccc3nc2-1` [Compound 59, camptothecin-20-O-methyl carbonate] gave an IC50 [3, 7] of 11 nM.
`CC[C@@]1(OC(=O)OCC(C)C)C(=O)OCc2c1cc1n(c2=O)Cc2cc3ccccc3nc2-1` [Compound 60, camptothecin-20-O-isobutyryl carbonate] showed an IC50 ([3]; read-out: IC50) of 29 nM.
With `CC[C@@]1(O)C(=O)OCc2c1cc1n(c2=O)Cc2cc3c(CN(C)C)c(O)ccc3nc2-1` [Topotecan, reference compound] the IC50 ([1]; Mus musculus, 72 h, P388 murine leukemia cell line, three days) was 29 nM and the IC50 ([2]; 72 h, HT-29 human colon carcinoma cell line, three days) was 99 nM.
In the case of “Bis-Camptothecin-N-Acetyl-PEG40kDa -20-O-Glycinate [Compound 37b]”, the IC50 [1] is reported as 49 nM and the IC50 [2] is reported as 137 nM.
In the case of “Bis-Camptothecin-N-PEG40kDa -20-O-Glycinate [Compound 37a]”, the IC50 [1] is reported as 24 nM and the IC50 [2] is reported as 110 nM.
For “Camptothecin-20-O-Glycinate PEG40kDa -Amide Derivative [Compound 48]”, the “Survival Rate %” value ([4]; total active dose 16 mg/kg) was 80%, the “Tumor growth (%)” value ([6]; week 5 (end of treatment)) was -80% and the “Tumor growth (%)” value ([6]; week 7 (2 week post treatment)) was -96%.
With “Camptothecin-20-O-Glycinate PEG40kDa Carbamate Derivative [Compound 49]” the IC50 [1] was 33 nM and the IC50 [2] was 40 nM.
For “Camptothecin-20-O-ester of 2-PEG40k N-methylcarbamoyl Acetic Acid [Compound 5b]”, the IC50 [1] was 18 nM and the IC50 [2] was 153 nM.
Molecule “Camptothecin-20-O-ester of 2-PEG40kDa Carbamoylacetic Acid [Compound 5a]” has an IC50 ([1]; P388 murine leukemia cell line, three days) of 7 nM and an IC50 ([2]; HT-29 human colon carcinoma cell line, three days) of 30 nM.
With “Camptothecin-20-O-ester of PEG20kDa diacid” the “50% survival” value ([4]; total active dose 11.4 mg/kg) was 21 days and the “Survival Rate %” value ([4]; total active dose 11.4 mg/kg) was 10%.
Molecule “camptothecin-20-O-PEG5kDa carbamate [Compound 57]” has an IC50 [3, 7] of 912 nM.
